Results taken from patent US10301295B2, “Herbicidal compounds” (Syngenta Participations AG, priority 2014, dated 2019).
Like-named read-outs stand apart in the source and are kept apart here.

How the values were obtained:
Type in all cases: in vivo
[1] = test system: Alopecurus myosuroides (ALOMY); test: Glasshouse assay for herbicidal activity, pre-/post-emergence (percentage phytotoxicity); conditions: Alopecurus myosuroides, Rate 250 g/ha, 100%=total damage, 0%=no damage
Outline: (§1)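 Visual score (0–100% damage) at 15DAA post-em / 20DAA pre-em. Pots, std soil; treated 1 d (pre) or ~12 d (post) after sowing. 24/18 °C warm spp., 20/16 °C cool spp., 16 h light, 65% RH.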

Avena fatua (AVEFA) = test: as above; conditions: Avena fatua, Rate 250 g/ha, 100%=total damage, 0%=no damage
Outline: as §1

[2] = test system: Echinochloa crus-galli (ECHCG); test: as above; conditions: Echinochloa crus-galli, Rate 250 g/ha, 100%=total damage, 0%=no damage
Outline: as §1

Lolium perenne (LOLPE) = test: as above; conditions: Lolium perenne, Rate 250 g/ha, 100%=total damage, 0%=no damage
Outline: as §1

wheat = test: Post-emergence herbicidal activity against cereal crops (wheat) +/- safener, crop selectivity; conditions: 100%=total damage to plant, 0%=no damage; for Post-emergence herbicidal activity against wheat (percentage phytotoxicity), +CQC: 250 g/ha, plus safener cloquintocet-mexyl (CQC) applied at 50 g/ha; for percent phytotoxicity (crop damage) to wheat at 250 g/ha: Triticum aestivum, 360 h, without safener, read-out: Post-emergence herbicidal activity against wheat (percentage phytotoxicity), Wheat - CQC
Outline: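 Test plants raised in pots in a glasshouse (24/18 °C warm or 20/16 °C cool species day/night, 16 h light, 65% humidity) and treated post-emergence about 12 days after sowing. Visual percentage phytotoxicity scored 15 days after application (0% = no damage, 100% = total damage).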

[3] = 360 h, post-emergence, visual assessment 15 DAA, read-out: Post-emergence herbicidal activity (percentage phytotoxicity), ALOMY POST
[4] = 480 h, pre-emergence, visual assessment 20 DAA, read-out: Pre-emergence herbicidal activity (percentage phytotoxicity), ALOMY PRE
[5] = post-emergence, 360 h, post-emergence, visual assessment 15 DAA, read-out: Post-emergence herbicidal activity (percentage phytotoxicity), AVEFA POST
[6] = pre-emergence, 480 h, pre-emergence, visual assessment 20 DAA, read-out: Pre-emergence herbicidal activity (percentage phytotoxicity), AVEFA PRE
[7] = post-emergence, 360 h, post-emergence, visual assessment 15 DAA, read-out: Post-emergence herbicidal activity (percentage phytotoxicity), ECHCG POST
[8] = pre-emergence, 480 h, pre-emergence, visual assessment 20 DAA, read-out: Pre-emergence herbicidal activity (percentage phytotoxicity), ECHCG PRE
[9] = post-emergence, 360 h, post-emergence, visual assessment 15 DAA, read-out: Post-emergence herbicidal activity (percentage phytotoxicity), LOLPE POST
[10] = pre-emergence, 480 h, pre-emergence, visual assessment 20 DAA, read-out: Pre-emergence herbicidal activity (percentage phytotoxicity), LOLPE PRE

Compound | pest or weed control at 250 g/ha [1, 3] [%] | pest or weed control at 250 g/ha [1, 4] [%] | pest or weed control at 250 g/ha (Avena fatua (AVEFA); [5]) [%] | pest or weed control at 250 g/ha (Avena fatua (AVEFA); [6]) [%] | pest or weed control at 250 g/ha [2, 7] [%] | pest or weed control at 250 g/ha [2, 8] [%] | pest or weed control at 250 g/ha (Lolium perenne (LOLPE); [9]) [%] | pest or weed control at 250 g/ha (Lolium perenne (LOLPE); [10]) [%] | Post-emergence herbicidal activity against wheat (percentage phytotoxicity), +CQC (wheat) [%] | percent phytotoxicity (crop damage) to wheat at 250 g/ha (wheat) [%]
Cc1cc(C)c(C2C(=O)CC(CCNC(=O)Nc3ccc(F)cn3)C2=O)c(C)c1 (centres unmarked) [Compound A12] | 90 | 90 | 90 | 90 | 90 | 100 | 90 | 90 | 80 | 90
Cc1cc(C)c(C2C(=O)CC(CCNC(=O)NC(=O)c3cc(F)ccc3C(F)(F)F)C2=O)c(C)c1 (centres unmarked) [Compound A63] | 100 | 90 | 90 | 40 | 80 | 70 | 90 | 80 | 80 | 80
Cc1cc(-c2ncccc2F)cc(C)c1C1C(=O)CC(CCNC(=O)Nc2ccccn2)C1=O.Cl (centres unmarked) [Compound A24] | 60 | 10 | 100 | 70 | 100 | 90 | 90 | 80 | 70 | 80
CC#Cc1cc(C)c(C2C(=O)CC(CCNC(=O)NC(C)(C)C)C2=O)c(C)c1 (centres unmarked) [Compound A23] | 90 | 100 | 100 | 100 | 100 | 100 | 90 | 100 | 80 | 90
Cc1cc(-n2cc(Cl)cn2)cc(C)c1C1C(=O)CC(CCNS(=O)(=O)c2ccc(Cl)cc2)C1=O (centres unmarked) [Compound A37] | 0 | 0 | 0 | 0 | 30 | 0 | 0 | 0 | 10 | 20
Cc1cc(-n2cc(Cl)cn2)cc(C)c1C1C(=O)CC(CCNC(=O)Nc2ccc(F)cn2)C1=O (centres unmarked) [Compound A28] | 90 | 70 | 100 | 70 | 90 | 90 | 80 | 70 | 20 | 80
Cc1cc(C)c(C2C(=O)CC(CCNC(=O)Nc3cc(C(C)(C)F)ncn3)C2=O)c(C)c1 (centres unmarked) [Compound A16] | 90 | 80 | 100 | 70 | 80 | 100 | 90 | 90 | 50 | 80
Cc1cc(C)c(C2C(=O)CC(CCNC(=O)NC(=O)c3ccc(Cl)c(F)c3)C2=O)c(C)c1 (centres unmarked) [Compound A58] | 40 | 0 | 10 | 0 | 80 | 0 | 90 | 0 | 20 | 80
Cc1cc(C)c(C2C(=O)CC(CCNC(=O)NC(=O)c3ccc(F)cc3C(F)(F)F)C2=O)c(C)c1 (centres unmarked) [Compound A69] | 100 | 80 | 90 | 80 | 70 | 70 | 100 | 80 | 80 | 90
Cc1cc(C)c(C2C(=O)CC(CCNC(=O)NO)C2=O)c(C)c1 (centres unmarked) [Compound A26] | 10 | 0 | 0 | 0 | 10 | 0 | 40 | 0 | 10 | 0
Cc1cc(C)c(C2C(=O)CC(CCNC(=O)NC(=O)c3ccc(F)c(F)c3)C2=O)c(C)c1 (centres unmarked) [Compound A56] | 80 | 70 | 80 | 40 | 80 | 60 | 90 | 80 | 70 | 80
Cc1cc(C)c(C2C(=O)CC(CCNC(=O)NC(=O)c3cc(C(F)(F)F)ccc3Cl)C2=O)c(C)c1 (centres unmarked) [Compound A62] | 90 | 70 | 80 | 30 | 80 | 80 | 80 | 40 | 70 | 80
Cc1cc(C)c(C2C(=O)CC(CCNC(=O)NC(=O)c3ccc(C(F)(F)F)cc3)C2=O)c(C)c1 (centres unmarked) [Compound A72] | 30 | 20 | 90 | 20 | 80 | 0 | 80 | 10 | 70 | 80
Cc1cc(C)c(C2C(=O)CC(CCNC(=O)NC(=O)c3c(Cl)cccc3Cl)C2=O)c(C)c1 (centres unmarked) [Compound A52] | 90 | 80 | 80 | 70 | 90 | 100 | 90 | 80 | 30 | 80
